According to the NIST ThermoML archive (doi:10.1021/je049688b):
Numbers after ± are expanded uncertainties.

Conditions: Liquid, Ebulliometric method (Recirculating still)

SMILES | vapor or sublimation pressure (329.35 K) [kPa] | vapor or sublimation pressure (337.75 K) [kPa]
CC(C)=O [acetone] | 101 ± 1.3 | 
CO [methanol] |  | 101 ± 1.3
